Series [1] deals with T1, HCV NS5B570n-BK (Hepatitis C virus genotype 1b, UniProt P26663).
T1 construct: histidine tag (N); made in house; host or cells: E. coli strain M15
In words: HCV NS5B RNA Polymerase Activity. Type of series: biochemical. As for the experimental part:
The enzymatic activity of HCV NS5B570n-BK is measured as incorporation of radiolabeled nucleotide monophosphates into acid insoluble RNA products. Unincorporated radiolabel substrate is removed by filtration and scintillant is added to the washed and dried filter plate containing radiolabeled RNA product. The light emitted by the scintillant is proportional to the amount of RNA product generated by NS5B570n-BK at the endpoint of the reaction.
The N-terminally histidine tagged HCV polymerase, derived from HCV BK strain, genotype 1b (NS5B570n-BK) contains a 21 amino acid deletion at the C-terminus relative to the full-length HCV polymerase and is purified from E. coli strain M15. The construct containing the coding sequence of HCV BK strain amino acid residues 2421-2999 (GenBank accession number M58335) downstream of a […] promoter expression cassette was inserted into plasmid constructs. The plasmid constructs are transformed in E. coli and colonies are inoculated and grown overnight in 10 L of Terrific broth (Tartoff and Hobbs) supplemented with 100 μg/mL ampicillin at 37° C. Protein expression is induced by addition of 1 mM isopropyl-β-D-thiogalactopyranoside (IPTG), when optical densities reaches between 1.5 and 3.5 OD600 and the culture is then incubated for 16- to 18 h at 22° C. NS5B570n-BK is purified to homogeneity using a three step protocol including subsequent column chromatography on Ni-NTA, SP-Sepharose HP and Superdex 75 resins. […]
The amount of light emitted from the scintillant is converted to counts per minute (CPM) on a Topcount® plate reader (Perkin-Elmer, Energy Range: Low, Efficiency Mode: Normal, Count Time: 1 min, Background Subtract: none, Cross talk reduction: Off).
Data is analyzed with GraphPad® Prism® and/or Microsoft® Excel®. […] All data is expressed as a percentage of the positive control. […]

Series [2] concerns Renilla luciferase HCV replicon cells (2209-23). Kind of series: Renilla luciferase Assay (HCV replicon). Type of series: cell-based. Particulars: Huh-7, 72 h; replicon cells 2209-23 (Huh7), three days incubation; read-out: R. luciferase Activity IC50.
Series [3] concerns HCV. As to conditions: ribavirin monotherapy; cited from earlier work.

Read-outs that look alike come from different tables or passages of the source.

Results on 27 molecules are retold here after patent US7531534B2, “Heterocyclic antiviral compounds” (Roche Palo Alto LLC, priority 2006, dated 2009).

T1 sequence (P26663 2420-2989): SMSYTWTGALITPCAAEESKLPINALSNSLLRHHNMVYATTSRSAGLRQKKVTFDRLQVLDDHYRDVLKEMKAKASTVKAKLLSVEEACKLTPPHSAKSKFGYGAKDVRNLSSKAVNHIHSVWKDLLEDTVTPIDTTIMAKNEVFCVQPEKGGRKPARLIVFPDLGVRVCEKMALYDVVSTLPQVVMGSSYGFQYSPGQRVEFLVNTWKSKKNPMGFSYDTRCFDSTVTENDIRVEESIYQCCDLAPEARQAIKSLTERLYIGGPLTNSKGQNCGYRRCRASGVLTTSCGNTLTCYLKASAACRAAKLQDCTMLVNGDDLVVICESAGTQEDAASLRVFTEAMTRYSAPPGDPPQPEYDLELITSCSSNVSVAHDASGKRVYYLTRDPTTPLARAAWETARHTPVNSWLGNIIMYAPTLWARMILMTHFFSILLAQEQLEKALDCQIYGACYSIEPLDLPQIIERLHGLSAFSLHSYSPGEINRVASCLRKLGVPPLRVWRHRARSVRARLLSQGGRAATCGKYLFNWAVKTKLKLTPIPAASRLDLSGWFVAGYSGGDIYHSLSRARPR

For the molecule `CC1=C(C2=C(O)[C@H](C(C)(C)C)N(Cc3ccc(F)cc3)C2=O)Nc2ccc(NS(C)(=O)=O)cc2S1(=O)=O`, the melting point lay within 170 to 174 °C.

As to `CCS(=O)(=O)Nc1ccc2c(c1)S(=O)(=O)C(Cl)=C(C1=C(O)[C@H](C(C)(C)C)N(Cc3ccc(F)c(Cl)c3)C1=O)N2`, the melting point lay in the range of 140 to 144 °C.

On to `CC(C)(C)[C@H]1C(O)=C(C2=C(Cl)S(=O)(=O)c3cc(NS(=O)(=O)C4CC4)ccc3N2)C(=O)N1Cc1ccc(F)c(Cl)c1`, for which the melting point lay in the range of 137 to 141 °C.

For `CCS(=O)(=O)Nc1ccc2c(c1)S(=O)(=O)C(Cl)=C(C1=C(O)[C@H](C(C)(C)C)N(CCC(C)C)C1=O)N2`, the melting point lay within 125 to 165 °C.

As to `CC(C)(C)[C@H]1C(O)=C(C2=C(Cl)S(=O)(=O)c3cc(NS(C)(=O)=O)ccc3N2)C(=O)N1Cc1ccccc1`, the melting point fell in the range of 148 to 152 °C.

In turn, `CC(C)(C)[C@H]1C(O)=C(C2=C(Cl)S(=O)(=O)c3cc(NS(C)(=O)=O)ccc3N2)C(=O)N1CCC1CCCC1` returned a melting point of 137 to 141 °C.

In turn, `COc1cc(CN2C(=O)C(C3=C(Cl)S(=O)(=O)c4cc(NS(C)(=O)=O)ccc4N3)=C(O)[C@@H]2C(C)(C)C)ccc1F` displayed a melting point of 139 to 144 °C.

For `CC(C)CCN1C(=O)C(C2=C(Cl)S(=O)(=O)c3cc(NS(C)(=O)=O)ccc3N2)=C(O)[C@@H]1C(C)(C)C`, the melting point fell in the range of 142 to 145 °C.

`CN(C)C(=O)C1=C(C2=C(O)[C@H](C(C)(C)C)N(Cc3ccc(F)cc3)C2=O)Nc2ccc(NS(C)(=O)=O)cc2S1(=O)=O` displayed a melting point of 140 °C.

`COc1cc(CN2C(=O)C(C3=C(C#N)S(=O)(=O)c4cc(NS(C)(=O)=O)ccc4N3)=C(O)C2C(C)(C)C)ccc1F` (stereo not shown) showed a melting point of 218 °C.

For the molecule `Cc1cc(CN2C(=O)C(C3=C(C#N)S(=O)(=O)c4cc(NS(C)(=O)=O)ccc4N3)=C(O)C2C(C)(C)C)ccc1F` (stereo not shown), the melting point was > 250 °C.

As for `CC(C)CCN1C(=O)C(C2=C(C#N)S(=O)(=O)c3cc(NS(C)(=O)=O)ccc3N2)=C(O)C1C(C)(C)C` (stereo not shown), the melting point was > 250 °C.

For the molecule `CC(C)(C)C1C(O)=C(C2=C(C#N)S(=O)(=O)c3cc(NS(C)(=O)=O)ccc3N2)C(=O)N1CCC1CCCC1` (stereo not shown), the melting point was > 250 °C.

In turn, `CC(C)CCN1C(=O)C(C2=C(C(N)=O)S(=O)(=O)c3cc(NS(C)(=O)=O)ccc3N2)=C(O)[C@@H]1C(C)(C)C` had a melting point of 150 to 155 °C.

Take `Cc1cc(CN2C(=O)C(C3=C(C(N)=O)S(=O)(=O)c4cc(NS(C)(=O)=O)ccc4N3)=C(O)[C@@H]2C(C)(C)C)ccc1F`: the melting point lay in the range of 168 to 172 °C.

`CC1=C(C2=C(O)[C@H](C(C)(C)C)N(CCC(C)C)C2=O)Nc2ccc(NS(C)(=O)=O)cc2S1(=O)=O` yielded a melting point of 210 to 215 °C.

As for `CC(C)(C)[C@H]1c2oc(=O)c3c(c2C(=O)N1Cc1ccc(F)cc1)Nc1ccc(NS(C)(=O)=O)cc1S3(=O)=O`, the melting point stood at 120 °C.

`CCS(=O)(=O)Nc1ccc2c(c1)S(=O)(=O)C(Cl)=C(C1=C(O)[C@H](C(C)(C)C)N(Cc3ccc(F)cc3)C1=O)N2` showed a melting point of 136 to 140 °C.

Molecule `CC(C)(C)[C@H]1C(O)=C(C2=C(Cl)S(=O)(=O)c3cc(NS(=O)(=O)C4CC4)ccc3N2)C(=O)N1Cc1ccc(F)cc1` displayed a melting point of 137 to 141 °C.

For the molecule `Cc1cc(CN2C(=O)C(C3=C(Cl)S(=O)(=O)c4cc(NS(C)(=O)=O)ccc4N3)=C(O)[C@@H]2C(C)(C)C)ccc1F`, the melting point was 140 to 146 °C.

Take `CCS(=O)(=O)Nc1ccc2c(c1)S(=O)(=O)C(Cl)=C(C1=C(O)[C@H](C(C)(C)C)N(Cc3ccc(F)c(C)c3)C1=O)N2`: the melting point was in the range of 130 to 135 °C.

In the case of `Cc1cc(CN2C(=O)C(C3=C(Cl)S(=O)(=O)c4cc(NS(=O)(=O)C5CC5)ccc4N3)=C(O)[C@@H]2C(C)(C)C)ccc1F`, the melting point is 127 to 131 °C.

The molecule `CC(C)(C)[C@H]1C(O)=C(C2=C(Cl)S(=O)(=O)c3cc(NS(C)(=O)=O)ccc3N2)C(=O)N1Cc1ccc(F)c(Cl)c1` had a melting point of 147 to 151 °C.

Turning to `CC(C)(C)[C@H]1C(O)=C(C2=C(Cl)S(=O)(=O)c3cc(NS(C)(=O)=O)ccc3N2)C(=O)N1Cc1ccc(F)cc1` [Compound I-3, N-{3-[(S)-5-tert-Butyl-1-(4-fluoro-benzyl)-4-hydroxy-2-oxo-2,5-dihydro-1H-pyrrol-3-yl]-2-chloro-1,1-dioxo-1,4-dihydro-1λ^6-benzo[1,4]thiazin-7-yl}-methanesulfonamide], the melting point lay within 144 to 148 °C. In addition, the IC50 in series [1] was 2 nM. In addition, in series [2], the IC50 stood at 4 nM.

On to `Cc1cc(CN2C(=O)C(C3=C(F)S(=O)(=O)c4cc(NS(C)(=O)=O)ccc4N3)=C(O)[C@@H]2C(C)(C)C)ccc1F` [Compound I-18, N-{3-[(S)-5-tert-Butyl-1-(4-fluoro-3-methyl-benzyl)-4-hydroxy-2-oxo-2,5-dihydro-1H-pyrrol-3-yl]-2-fluoro-1,1-dioxo-1,4-dihydro-1λ^6-benzo[1,4]thiazin-7-yl}-methanesulfonamide], for which the IC50 in series [1] (NS5B570n-BK, poly A:oligo U16, tritiated UTP incorporation, read-out: Polymerase Assay IC50) worked out at 5 nM; in series [2] it was 16 nM.

Consider `CC(C)(C)C1C(O)=C(C2=C(C#N)S(=O)(=O)c3cc(NS(C)(=O)=O)ccc3N2)C(=O)N1Cc1ccc(F)cc1` (stereo not shown) [Compound I-19, N-{3-[5-tert-Butyl-1-(4-fluoro-benzyl)-4-hydroxy-2-oxo-2,5-dihydro-1H-pyrrol-3-yl]-2-cyano-1,1-dioxo-1,4-dihydro-1λ^6-benzo[1,4]thiazin-7-yl}-methanesulfonamide], for which the IC50 came out at 6 nM in series [1] and 16 nM in series [2].

On to `NC(=O)c1ncn([C@@H]2O[C@H](CO)[C@@H](O)[C@H]2O)n1` [ribavirin, 1-((2R,3R,4S,5R)-3,4-Dihydroxy-5-hydroxymethyl-tetrahydro-furan-2-yl)-1H-[1,2,4]triazole-3-carboxylic acid amide], for which the “patients in whom serum amino transferase levels are reduced to normal” value in series [3] was 40%.
